Source: patent publication EP4631940A1, “COMPOUND TARGETING PAN-KRAS PROTEIN DEGRADATION AGENT AND USE THEREOF” (Betta Pharmaceuticals Co., Ltd., priority 2022, dated 2024)
Like-named read-outs stand apart in the source and are kept apart here.

Columns and labels:
PK59 = experiment: Cell proliferation experiment (CellTiter-Glo); type: cell-based; details: PK-59; PK59, KRAS mutation type G12D; 96 h incubation
in vitro [1] = details: rat, microsomes
in vitro [2] = details: human, microsomes
in vitro [3] = details: mouse, microsomes
in vitro [4] = details: dog, microsomes
AGS = experiment: Cell proliferation experiment (CellTiter-Glo); type: cell-based; details: read-out: IC50(nM) AGS
HCT116 = experiment: Cell proliferation experiment (CellTiter-Glo); type: cell-based; details: Homo sapiens, HCT-116; HCT116, KRAS mutation type G13D; 96 h incubation
H1975 = experiment: Cell proliferation experiment (CellTiter-Glo); type: cell-based; details: Homo sapiens, NCI-H1975; H1975, KRAS WT; 96 h incubation
KRAS G12D [5] = target: T1, KRAS G12D (Homo sapiens, UniProt P01116, G12D); experiment: cell-based; details: AGS
SW620 = experiment: Cell proliferation experiment (CellTiter-Glo); type: cell-based; details: read-out: IC50(nM) SW620
KRAS G12D [6] = target: T1, KRAS G12D
[7] = Metabolic stability in liver microsomes (NADPH); details: for The in vitro intrinsic clearance in liver microsomes (CLint, in vitro, µL/min/mg protein) Rat: 0.5 mg/mL liver microsomes, NADPH, 37°C
[8] = Metabolic stability in liver microsomes (NADPH); details: for The in vitro intrinsic clearance in liver microsomes (CLint, in vitro, µL/min/mg protein) Human: 0.5 mg/mL liver microsomes, NADPH, 37°C
[9] = Metabolic stability in liver microsomes (NADPH); details: for The in vitro intrinsic clearance in liver microsomes (CLint, in vitro, µL/min/mg protein) Mouse: 0.5 mg/mL liver microsomes, NADPH, 37°C
[10] = Metabolic stability in liver microsomes (NADPH); details: for The in vitro intrinsic clearance in liver microsomes (CLint, in vitro, µL/min/mg protein) Dog: 0.5 mg/mL liver microsomes, NADPH, 37°C
[11] = PK study in ICR mice (whole blood); type: in vivo; details: Female ICR mice, IV 1 mg/kg
Method: Example 8 PK Study of Compound in ICR Mice (whole blood)
(§1) The compound was mixed with the vehicle (10% DMSO / 5% Solutol HS 15 / 85% saline), vortexed, and sonicated to prepare a clear solution at 0.2 mg/mL. Female ICR mice aged 6 to 7 weeks (non-fasted) were intravenously administered the compound. Whole blood was collected at specified time points. Drug concentration was analyzed by LC-MS/MS, and pharmacokinetic parameters were calculated using Phoenix WinNonlin software (Pharsight Corporation, USA). Table 11 Mouse PK Data for Intravenous Compound Monotherapy

H358 = experiment: Cell proliferation experiment (CellTiter-Glo); type: cell-based; details: Homo sapiens, NCI-H358; H358, KRAS mutation type G12C; 96 h incubation
[12] = PK study in ICR mice (plasma); type: in vivo; details: Female ICR mice, IV 1 mg/kg
Method: Example 9 PK Study of Compound in ICR Mice (plasma)
as §1, with “Plasma” for “Whole blood”, “12” for “11”

[13] = PK study in Beagle dogs (plasma); type: in vivo; details: IV 1 mg/kg
Method: Example 10 PK Study of Compound 135 in Beagle Dogs
as §1, with “Compound 135” for “The compound”, “0.5” for “0.2”, “Beagle dogs weighing approximately 10 kg (equal number of males and females, non-fasted)” for “Female ICR mice aged 6 to 7 weeks (non-fasted)”, “Plasma” for “Whole blood”, “13 Beagle Dog” for “11 Mouse”

PK-59 cells = experiment: Anti-tumor effects in a human pancreatic cancer xenograft model carrying KRAS^G12D mutation; type: in vivo, BALB/c Nude Crlj mice; details: PK-59 xenograft; for TGI After 4 Weeks of Administration (%): tail vein

Molecule | IC50 (PK59) | microsomal CLint (in vitro [1]) | microsomal CLint (in vitro [2]) | microsomal CLint (in vitro [3]) | microsomal CLint (in vitro [4]) | IC50 (AGS; Homo sapiens, AGS, 96 h) | IC50 (HCT116) | IC50 (H1975) | Dmax (KRAS G12D [5]) | IC50 (SW620; Homo sapiens, SW-620, 96 h) | DC50 (KRAS G12D [6]) | IC50 (AGS) | The in vitro intrinsic clearance in liver microsomes (CLint, in vitro, µL/min/mg protein) Rat [7] | The in vitro intrinsic clearance in liver microsomes (CLint, in vitro, µL/min/mg protein) Human [8] | IC50 (SW620) | Dmax (%) (KRAS G12D [6]) | The in vitro intrinsic clearance in liver microsomes (CLint, in vitro, µL/min/mg protein) Mouse [9] | The in vitro intrinsic clearance in liver microsomes (CLint, in vitro, µL/min/mg protein) Dog [10] | further results
CCc1c(F)ccc2cc(O)cc(-c3ncc4c(N5CCC[C@@](C)(O)C5)nc(OCC5(CN6CCC7(CC6)CN(c6ccc(-c8cn([C@H](C(=O)N9C[C@H](O)C[C@H]9C(=O)N[C@@H](C)c9ccc(-c%10scnc%10C)cc9)C(C)C)nn8)cn6)C7)CC5)nc4c3F)c12 [Compound 118] | 12.2 nM | 3.4 µL/min/mg | 21.3 µL/min/mg | 11.4 µL/min/mg | 17.2 µL/min/mg | 13 nM | 37 nM | > 10000 nM | 95% | 26 nM | 11 nM |  |  |  |  |  |  |  | 
(2S,4R)-1-((S)-2-(5-(((3S,7aS)-7a-(((7-(8-ethyl-7-fluoro-3-hydroxynaphthalen-1-yl)-8-fluoro-4-( (R)-3-hydroxy-3-methylpiperidin-1-yl)pyrido[4,3-d]pyrimidin-2-yl)oxy)methyl)-6-methylenehex ahydro-1H-pyrrolidin-3-yl)methoxy)methyl)-1H-1,2,3-triazol-1-yl)-3-methylbutanoyl)-4-hydrox y-N-(((S)-1-(4-(4-methylthiazol-5-yl)phenyl)ethyl)pyrrolidine-2-carboxamide [Compound 120] |  |  |  |  |  |  |  |  |  |  | 11 nM | 12 nM | 9.3 µL/min/mg protein | 128 µL/min/mg protein | 102 nM | 95% | 48.5 µL/min/mg protein | 113 µL/min/mg protein | 
CCc1c(F)ccc2cc(O)cc(-c3ncc4c(N5CCC[C@@](C)(O)C5)nc(OCC5(CN6CCC7(CC6)CC(c6cn([C@H](C(=O)N8C[C@H](O)C[C@H]8C(=O)N[C@@H](C)c8ccc(-c9scnc9C)cc8)C(C)C)nn6)C7)CC5)nc4c3F)c12 [Compound 73, (2S,4R)-1-((S)-2-(4-(7-((1-((7-(8-ethyl-7-fluoro-3-hydroxynaphthalen-1-yl)-8-fluoro-4-(((R)-3-hydroxy-3-methylpiperidin-1-yl)pyrido[4,3-d]pyrimidin-2-yl)oxy)methyl)cyclopropyl)methyl)-7-azaspiro[3.5]nonan-2-yl)-1H-1,2,3-triazol-1-yl)-3-methylbutanoyl)-4-hydroxy-N-((S)-1-(4-(4-methylthiazol-5-yl)phenyl)ethyl)pyrrolidine-2-carboxamide] |  |  |  |  |  |  |  |  |  |  | 17 nM | 22 nM | 9.8 µL/min/mg protein | 13.8 µL/min/mg protein | 81 nM | 95% | 7.1 µL/min/mg protein | 18.9 µL/min/mg protein | AUClast [11]: 2051 ng·h/mL; C0 [11]: 3008 ng/mL; t1/2 [11]: 5.07 h; Cl_obs ([11]; 1 mg/kg): 7.97 mL/min/kg; Vss_obs ([11]; 1 mg/kg): 1.91 L/kg
C=C1CN2[C@H](COC(=O)N3CCC(Cc4cn([C@H](C(=O)N5C[C@H](O)C[C@H]5C(=O)N[C@@H](C)c5ccc(-c6scnc6C)cc5)C(C)C)nn4)CC3)CC[C@@]2(COc2nc(N3CCC[C@@](C)(O)C3)c3cnc(-c4cc(O)cc5ccc(F)c(CC)c45)c(F)c3n2)C1 [Compound 141, ((3S,7aS)-7a-(((7-(8-ethyl-7-fluoro-3-hydroxynaphthalen-1-yl)-8-fluoro-4-((R)-3-hydroxy-3-methylpiperidin-1-yl)pyrido[4,3-d]pyrimidin-2-yl)oxy)methyl)-6-methylenehexahydro-1H-pyrrolizin-3-yl)methyl 4-((1-((S)-1-((2S,4R)-4-hydroxy-2-(((S)-1-(4-(4-methylthiazol-5-yl)phenyl)ethyl)carbamoyl)pyrrolidin-1-yl)-3-methyl-1-oxobutan-2-yl)-1H-1,2,3-triazol-4-yl)methyl)piperidine-1-carboxylate] |  |  |  |  |  | 31 nM |  |  |  | 250 nM |  |  |  |  |  |  |  |  | microsomal CLint at 1 µM ([7]; rat, liver microsomes): 3.9 µL/min/mg; microsomal CLint at 1 µM ([8]; human, liver microsomes): 21.2 µL/min/mg; microsomal CLint at 1 µM ([9]; mouse, liver microsomes): 12.1 µL/min/mg; microsomal CLint at 1 µM ([10]; dog, liver microsomes): 12.9 µL/min/mg
((7-(8-ethyl-7-fluoro-3-hydroxynaphthalen-1-yl)-8-fluoro-4-(R)-3-hydroxy-3-methylpiperidin-1-yl)pyrido[4,3-d]pyrimidin-2-yl)oxy)methyl)-6-methylenehexahydro-1H-pyrrolizin-3-yl)methyl 2-(1-(S)-1-(2S,4R)-4-hydroxy-2-(S)-1-(4-(4-methylthiazol-5-yl)phenyl)ethylcarbamoyl)pyrrolidi n-1-yl)-3-methyl-1-oxobutan-2-yl)-1H-1,2,3-triazol-4-yl)-7-azaspiro[3.5]nonane-7-carboxylate [Compound 127] |  |  |  |  |  |  |  |  |  |  |  | 47 nM | 15.6 µL/min/mg protein | 52.8 µL/min/mg protein | 223 nM |  | 42.4 µL/min/mg protein | 31.5 µL/min/mg protein | 
CCc1c(F)ccc2cc(O)cc(-c3ncc4c(N5CCC[C@@](C)(O)C5)nc(OCC5(CN6CCC(Oc7ccc(-c8cn([C@H](C(=O)N9C[C@H](O)C[C@H]9C(=O)N[C@@H](C)c9ccc(-c%10scnc%10C)cc9)C(C)C)nn8)cn7)CC6)CC5)nc4c3F)c12 [Compound 135] | 14.7 nM | 1.5 µL/min/mg | 11.3 µL/min/mg | 13.2 µL/min/mg | 26.9 µL/min/mg | 5.2 nM | 33 nM | > 10000 nM | 95% | 39 nM | 14 nM |  |  |  |  |  |  |  | IC50 (H358): 7.3 nM; Cl_obs [12]: 5.80 mL/min/kg; Vss_obs [12]: 1.61 L/kg; AUC(0-t) ([12]; mouse): 2750 ng·h/mL; C0 ([12]; mouse): 5840 ng/mL; half-life ([12]; mouse): 6.92 h; Cl_obs [13]: 5.74 mL/min/kg; Vss_obs [13]: 2.23 L/kg; AUC(0-t) ([13]; dog): 2780 ng·h/mL; C0 ([13]; dog): 11000 ng/mL; half-life ([13]; dog): 21.4 h; TGI After 4 Weeks of Administration (%) (PK-59 cells; 1 mg/kg, QW): 70%; TGI After 4 Weeks of Administration (%) (PK-59 cells; 3 mg/kg, QW): 92%; TGI After 4 Weeks of Administration (%) (PK-59 cells; 10 mg/kg, QW): 106%; TGI After 4 Weeks of Administration (%) (PK-59 cells; 20 mg/kg, Q2W): 101%; TGI at 20 mg/kg once every two weeks versus 10 mg/kg once weekly (PK-59 cells; 4 weeks of administration): comparable TGI
